Experimental data reported in US20100222269A1, “IMPROVED DERIVATIVES OF AMYLIN” (priority 2007, published 2010).
Positions of bridges follow the written chain, without caps; N, C: chain ends. Residues, ends and D or L forms follow the SMILES beside them. Groups on a side chain read outwards from the residue. *: point of attachment. C18 diacid = O=C(O)CCCCCCCCCCCCCCCCC(=O)*; AEEA = NCCOCCOCC(=O)O

Target: T1, Amylin 3(a) receptor (human calcitonin receptor (CTa) with RAMP-3) (Homo sapiens, UniProt O60896+P30988)
T1 construct: expressed in transfected cells; host or cells: BHK570 (baby hamster kidney) cells, stably transfected, with CRE-luciferase reporter
Experiment: Amylin luciferase assay (CRE-luciferase reporter in BHK Amylin 3(a)//CRE-luc cells)
Format: cell-based
Conditions: BHK570 cells with human calcitonin receptor (CTa), RAMP-3 and CRE-luciferase reporter; 4 hours incubation; read-out: Potency luciferase assay
From the text: It has previously been published (Poyner D R et al 2002, Pharmacological Reviews 54(2) 233-246) that activation of Amylin receptors (coexpression of Calcitonin receptor and receptor activity modifying peptides RAMPs) by Amylin leads to an increase in the intracellular concentration of cAMP. Consequently, transcription is activated at promotors containing multiple copies of the cAMP response element (CRE). It is thus possible to measure Amylin activity by use of a CRE luciferase reporter gene introduced into BHK cells also expressing an Amylin receptor.
2. Construction of an Amylin 3(a)/CRE-luc Cell Line
A BHK570 cell line stably transfected with the human calcitonin receptor (CTa) and a CRE-responsive luciferase reportergene. The cell line was further transfected with RAMP-3, using standard methods. This turns the Calcitonin receptor into an Amylin 3(a) receptor. Methotrexate, Neomycin, and Hygromycin are selection markers for luciferase, the Calcitonin receptor, and RAMP-3, respectively.
3. Amylin Luciferase Assay
To perform activity assays, BHK Amylin 3(a)//CRE-luc cells were seeded in white 96 well culture plates at a density of about 20.000 cells/well. The cells were in 100 μl growth medium (DMEM with 10% FBS, 1% Pen/Strep, 1 mM Na-pyruvate, 250 nM Methotrexate, 500 μg/ml Neomycin, and 400 μg/ml Hygromycin). After incubation overnight at 37° C. and 5% CO2, the growth medium was replaced by 50 μl/well assay medium (DMEM (without phenol red), Glumamax™, 10% FBS, and 10 mM Hepes, pH 7,4). Further, 50 μl/well of standard or sample in assay buffer were added. After 4 hours incubation at 37° C. and 5% CO2, the assay medium with standard or sample were removed and replaced by 100 μl/well PBS. Further, 100 μl/well LucLite™ was added. The plates were sealed and incubated at room temperature for 30 minutes. Finally, luminescence was measured on a TopCounter (Packard) in SPC (single photon counting) mode.

T1 sequence (O60896 24-148): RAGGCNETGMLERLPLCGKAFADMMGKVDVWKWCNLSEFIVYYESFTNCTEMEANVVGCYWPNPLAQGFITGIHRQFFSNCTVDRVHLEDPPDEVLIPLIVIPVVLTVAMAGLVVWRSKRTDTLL
T1 sequence (P30988 25-474): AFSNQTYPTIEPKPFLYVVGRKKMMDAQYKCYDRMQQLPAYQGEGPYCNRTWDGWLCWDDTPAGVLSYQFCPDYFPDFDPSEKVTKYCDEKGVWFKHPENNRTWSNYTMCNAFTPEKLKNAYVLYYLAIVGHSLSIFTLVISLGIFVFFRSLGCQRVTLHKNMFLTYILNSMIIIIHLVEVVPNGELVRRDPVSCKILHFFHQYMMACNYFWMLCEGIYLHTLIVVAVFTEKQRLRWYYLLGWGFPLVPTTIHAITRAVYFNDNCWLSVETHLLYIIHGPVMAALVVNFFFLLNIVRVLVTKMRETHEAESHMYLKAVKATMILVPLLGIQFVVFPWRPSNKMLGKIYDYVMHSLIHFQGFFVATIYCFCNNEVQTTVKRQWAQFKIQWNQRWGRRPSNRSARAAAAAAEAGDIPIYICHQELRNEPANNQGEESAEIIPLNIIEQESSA

EC50 | SMILES
0.05 nM | CC[C@H](C)[C@H](NC(=O)[C@@H]1CCCN1C(=O)CNC(=O)[C@H](Cc1ccccc1)NC(=O)[C@H](CC(N)=O)NC(=O)[C@H](CC(N)=O)NC(=O)[C@H](CO)NC(=O)[C@H](CO)NC(=O)[C@H](Cc1c[nH]cn1)NC(=O)[C@@H](NC(=O)[C@H](CC(C)C)NC(=O)[C@H](Cc1ccccc1)NC(=O)[C@H](CC(N)=O)NC(=O)[C@H](C)NC(=O)[C@H](CC(C)C)NC(=O)[C@H](CCCNC(=N)N)NC(=O)[C@H](CCC(N)=O)NC(=O)[C@@H](NC(=O)[C@H](C)NC(=O)[C@@H]1CSSC[C@H](NC(=O)[C@@H](N)CCCCN)C(=O)N[C@@H](CCCCNC(=O)CCCCCCCCCCCCCCCCC(=O)O)C(=O)N[C@@H]([C@@H](C)O)C(=O)N[C@@H](C)C(=O)N[C@@H]([C@@H](C)O)C(=O)N1)[C@@H](C)O)C(C)C)C(=O)N[C@@H](CC(C)C)C(=O)N1CCC[C@H]1C(=O)N1CCC[C@H]1C(=O)N[C@H](C(=O)N[C@@H](CC(N)=O)C(=O)N[C@H](C(=O)NCC(=O)N[C@@H](CO)C(=O)N[C@@H](CC(N)=O)C(=O)N[C@H](C(=O)N[C@@H](Cc1ccc(O)cc1)C(N)=O)[C@@H](C)O)C(C)C)[C@@H](C)O [Example 2, N-epsilon3-(17-carboxyheptadecanoyl)-[Lys3]-pramlintide (1-37)] (H-KCK(C18 diacid)TATCATQRLANFLVHSSNNFGPILPPTNVGSNTY-NH2; disulfide 2-7; N-terminus and C-terminus assumed)
0.1 nM | CC[C@H](C)[C@H](NC(=O)[C@@H]1CCCN1C(=O)CNC(=O)[C@H](Cc1ccccc1)NC(=O)[C@H](CC(N)=O)NC(=O)[C@H](CC(N)=O)NC(=O)[C@H](CO)NC(=O)[C@H](CO)NC(=O)[C@H](Cc1c[nH]cn1)NC(=O)[C@@H](NC(=O)[C@H](CC(C)C)NC(=O)[C@H](Cc1ccccc1)NC(=O)[C@H](CC(N)=O)NC(=O)[C@H](C)NC(=O)[C@H](CC(C)C)NC(=O)[C@H](CCCNC(=N)N)NC(=O)[C@H](CCC(N)=O)NC(=O)[C@@H](NC(=O)[C@H](C)NC(=O)[C@@H]1CSSC[C@H](NC(=O)[C@@H](N)CCCCN)C(=O)N[C@@H](CCCCNC(=O)COCCOCCNC(=O)COCCOCCNC(=O)CCCCCCCCCCCCCCCCC(=O)O)C(=O)N[C@@H]([C@@H](C)O)C(=O)N[C@@H](C)C(=O)N[C@@H]([C@@H](C)O)C(=O)N1)[C@@H](C)O)C(C)C)C(=O)N[C@@H](CC(C)C)C(=O)N1CCC[C@H]1C(=O)N1CCC[C@H]1C(=O)N[C@H](C(=O)N[C@@H](CC(N)=O)C(=O)N[C@H](C(=O)NCC(=O)N[C@@H](CO)C(=O)N[C@@H](CC(N)=O)C(=O)N[C@H](C(=O)N[C@@H](Cc1ccc(O)cc1)C(N)=O)[C@@H](C)O)C(C)C)[C@@H](C)O [Example 3, N-epsilon3-(2-{2-[2-(2-{2-[2-(17-carboxyheptadecanoylamino)ethoxy]ethoxy}acetylamino)ethoxy]ethoxy}acetyl)-[Lys3]-pramlintide (1-37)] (H-KCK([AEEA-AEEA-C18 diacid])TATCATQRLANFLVHSSNNFGPILPPTNVGSNTY-NH2; disulfide 2-7)
